pKi: −log10 of the molar value.
Molecular target: hCRTH2 (Homo sapiens (Human), UniProt Q9Y5Y4)
Test: Radioligand binding assay ([3H]-PGD2, SPA or filtration)
Conditions: [3H]-PGD2 competition, membrane protein from HEK-hCRTH2 cell line, room temperature, SPA or filtration format
Description: Radioligand binding was performed using filtration or scintillation proximity assay (SPA) technology. SPA assays were done at room temperature in 10 mM HEPES pH 7.4, 1 mM EDTA containing 2 mM MnCl2 and 16 nM [^3H]-PGD2 (PerkinElmer, Waltham, Mass.) (164 Ci mmol-1), in a final volume of 0.05 mL. Competing ligands were diluted in dimethylsulfoxide and added using very low volumes (500 nL). The reaction was initiated by the addition of a mixture of 3.52 ug of membrane protein prepared from a human embryonic kidney (HEK)-hCRTH2 cell line adhered to 140 ug of wheatgerm agglutinin SPA beads (PerkinElmer). Total and non-specific binding were determined in the absence and the presence of a CRTH2 antagonist, respectively. The reaction was routinely conducted for 60 minutes at room temperature followed by centrifugation for 5 minutes at 1000 RPM. The radioactivity was measured with a TopCountNXT (PerkinElmer). Filtration binding assays were done in a similar way with minor differences. The assay volume was 0.20 mL and competing ligands in dimethylsulfoxide were added in 2 uL. [^3H]-PGD2 was used at 0.6 nM, and reactions were initiated by the addition of 10 ug of membrane protein. Reactions were terminated by filtration through GF/C filter plates (PerkinElmer) presoaked in 10 mM HEPES. After washing with buffer, plates were dried in a 50° C. oven for 1 h, scintillation cocktail was added and radioactivity was measured. Results determined using the SPA-based assay were similar to those from the filtration binding assay. Table A (below) sets forth the results of the binding assay for representative compounds of the invention.

Chain of hCRTH2 (Q9Y5Y4 whole entry): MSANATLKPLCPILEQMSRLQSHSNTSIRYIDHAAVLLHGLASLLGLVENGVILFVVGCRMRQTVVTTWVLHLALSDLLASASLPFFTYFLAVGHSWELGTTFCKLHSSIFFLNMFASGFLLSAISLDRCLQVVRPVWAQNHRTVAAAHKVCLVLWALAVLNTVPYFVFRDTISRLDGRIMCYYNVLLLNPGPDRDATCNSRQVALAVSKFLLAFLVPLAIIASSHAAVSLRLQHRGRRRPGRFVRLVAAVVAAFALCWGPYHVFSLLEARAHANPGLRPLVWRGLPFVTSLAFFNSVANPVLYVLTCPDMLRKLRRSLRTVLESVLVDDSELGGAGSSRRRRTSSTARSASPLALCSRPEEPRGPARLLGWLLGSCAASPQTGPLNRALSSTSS

Row | SMILES | pKi
1 | COc1ccccc1-n1c(CCCCC(=O)O)cc2cc(C(=O)N[C@H](C)c3ccc(F)cc3)ccc2c1=O (single isomer, unassigned) [Example 3.6] | 6.44
2 | COc1ccccc1-n1c(CCCCC(=O)O)cc2cc(C(=O)N[C@H](C)c3ccc(F)cc3)ccc2c1=O (single isomer, unassigned) [Example 3.7] | 7.73
3 | C[C@@H](NC(=O)c1ccc2c(=O)n(Cc3ccccc3)c(CCCCC(=O)O)cc2c1)c1ccc(F)cc1 [Example 1.1, (R)-5-(2-benzyl-6-((1-(4-fluorophenyl)ethyl)carbamoyl)-1-oxo-1,2-dihydroisoquinolin-3-yl)pentanoic acid] | 7.42
4 | C[C@@H](NC(=O)c1ccc2c(=O)n(Cc3ccc(F)cc3)c(CCCCC(=O)O)cc2c1)c1ccc(F)cc1 [Example 1.2, (R)-5-(2-(4-fluorobenzyl)-6-((1-(4-fluorophenyl)ethyl)carbamoyl)-1-oxo-1,2-dihydroisoquinolin-3-yl)pentanoic acid] | 7.31
5 | C[C@@H](NC(=O)c1ccc2c(=O)n(-c3ccc(F)cc3)c(CC(=O)O)cc2c1)c1ccc(F)cc1 [Example 2.1, (R)-2-(2-(4-fluorophenyl)-6-((1-(4-fluorophenyl)ethyl)carbamoyl)-1-oxo-1,2-dihydroisoquinolin-3-yl)acetic acid] | 5.31
6 | O=C(O)CCCCc1cc2cc(C(=O)N[C@@H]3CCCc4ccccc43)ccc2c(=O)n1-c1ccc(F)cc1 [Example 3.1, (R)-5-(2-(4-fluorophenyl)-1-oxo-6-((1,2,3,4-tetrahydronaphthalen-1-yl)carbamoyl)-1,2-dihydroisoquinolin-3-yl)pentanoic acid] | 8.24
7 | O=C(O)CCCCc1cc2cc(C(=O)N[C@@H]3CCCc4cc(F)ccc43)ccc2c(=O)n1-c1ccc(F)cc1 [Example 3.2, (R)-5-(6-((6-fluoro-1,2,3,4-tetrahydronaphthalen-1-yl)carbamoyl)-2-(4-fluorophenyl)-1-oxo-1,2-dihydroisoquinolin-3-yl) pentanoic acid] | 8.19
8 | COc1ccc(-n2c(CCCCC(=O)O)cc3cc(C(=O)N[C@H](C)c4ccc(F)cc4)ccc3c2=O)cc1 [Example 3.3, (R)-5-(6-((1-(4-fluorophenyl)ethyl)carbamoyl)-2-(4-methoxyphenyl)-1-oxo-1,2-dihydroisoquinolin-3-yl)pentanoic acid] | 8.09
9 | C[C@@H](NC(=O)c1ccc2c(=O)n(-c3ccc(C#N)cc3)c(CCCCC(=O)O)cc2c1)c1ccc(F)cc1 [Example 3.4, (R)-5-(2-(4-cyanophenyl)-6-((1-(4-fluorophenyl)ethyl)carbamoyl)-1-oxo-1,2-dihydroisoquinolin-3-yl)pentanoic acid] | 8.05
10 | COc1cccc(-n2c(CCCCC(=O)O)cc3cc(C(=O)N[C@H](C)c4ccc(F)cc4)ccc3c2=O)c1 [Example 3.5, (R)-5-(6-((1-(4-fluorophenyl)ethyl)carbamoyl)-2-(3-methoxyphenyl)-1-oxo-1,2-dihydroisoquinolin-3-yl)pentanoic acid] | 7.88
11 | C[C@@H]1CN(c2ccc(F)cc2)CCN1C(=O)c1ccc2c(=O)n(-c3ccc(F)cc3)c(CCCCC(=O)O)cc2c1 [Example 4.1, (R)-5-(2-(4-fluorophenyl)-6-(4-(4-fluorophenyl)-2-methylpiperazine-1-carbonyl)-1-oxo-1,2-dihydroisoquinolin-3-yl)pentanoic acid] | 7.65
12 | C[C@@H]1CN(c2ccccc2)CCN1C(=O)c1ccc2c(=O)n(-c3ccc(F)cc3)c(CCCCC(=O)O)cc2c1 [Example 4.2, (R)-5-(2-(4-fluorophenyl)-6-(2-methyl-4-phenylpiperazine-1-carbonyl)-1-oxo-1,2-dihydro-isoquinolin-3-yl)pentanoic acid] | 7.87
13 | O=C(O)CCCCc1cc2cc(C(=O)NC3CC(=O)Nc4ccccc43)ccc2c(=O)n1-c1ccc(F)cc1 (stereo not shown) [Example 4.3, 5-(2-(4-fluorophenyl)-1-oxo-6-((2-oxo-1,2,3,4-tetrahydroquinolin-4-yl)carbamoyl)-1,2-dihydroisoquinolin-3-yl)pentanoic acid] | 7.68
14 | C[C@@H](NC(=O)c1ccc2c(=O)n(-c3ccc(F)cc3)c(CCCCC(=O)O)cc2c1)c1ccc(F)cc1 [Example 4.4, (R)-5-(2-(4-fluorophenyl)-6-((1-(4-fluorophenyl)ethyl)carbamoyl)-1-oxo-1,2-dihydroisoquinolin-3-yl)pentanoic acid] | 8.29
15 | O=C(O)CCCCc1cc2cc(-c3cc(Cc4ccc(F)cc4)on3)ccc2c(=O)n1-c1ccc(F)cc1 [Example 5.1, 5-(6-(5-(4-fluorobenzyl)isoxazol-3-yl)-2-(4-fluorophenyl)-1-oxo-1,2-dihydroisoquinolin-3-yl)pentanoic acid] | 7.99

Continued, values first:

Row | pKi | SMILES
16 | 7.90 | CC(c1ccc(F)cc1)c1nc(-c2ccc3c(=O)n(-c4ccc(F)cc4)c(CCCCC(=O)O)cc3c2)no1 (stereo not shown) [Example 7.3, 5-(2-(4-fluorophenyl)-6-(5-(1-(4-fluorophenyl)ethyl)-1,2,4-oxadiazol-3-yl)-1-oxo-1,2-dihydroisoquinolin-3-yl)pentanoic acid]
17 | 7.83 | O=C(O)CCCCc1cc2cc(-c3noc(-c4ccc(C(F)(F)F)cc4)n3)ccc2c(=O)n1-c1ccc(F)cc1 [Example 7.4, 5-(2-(4-fluorophenyl)-1-oxo-6-(5-(4-(trifluoromethyl)phenyl)-1,2,4-oxadiazol-3-yl)-1,2-dihydroisoquinolin-3-yl)pentanoic acid]
18 | 7.83 | C[C@@H](NC(=O)c1ccc2c(=O)n(-c3ccc(F)cc3)c(CCCCC(=O)NS(=O)(=O)C3CC3)cc2c1)c1ccc(F)cc1 [Example 8.2, (R)-3-(5-(cyclopropanesulfonamido)-5-oxopentyl)-2-(4-fluorophenyl)-N-(1-(4-fluorophenyl)ethyl)-1-oxo-1,2-dihydroisoquinoline-6-carboxamide]
19 | 7.77 | C[C@@H]1CN(c2ccc(F)cc2)CCN1C(=O)c1ccc2c(=O)n(-c3ccc(F)cc3)c(CCCCC(=O)NS(=O)(=O)C3CC3)cc2c1 [Example 8.3, (R)-N-(cyclopropylsulfonyl)-5-(2-(4-fluorophenyl)-6-(4-(4-fluorophenyl)-2-methylpiperazine-1-carbonyl)-1-oxo-1,2-dihydroisoquinolin-3-yl)pentanamide]
20 | 7.43 | C[C@@H]1CN(c2ccccc2)CCN1C(=O)c1ccc2c(=O)n(-c3ccc(F)cc3)c(CCCCC(=O)NS(=O)(=O)C3CC3)cc2c1 [Example 8.4, (R)-N-(cyclopropylsulfonyl)-5-(2-(4-fluorophenyl)-6-(2-methyl-4-phenylpiperazine-1-carbonyl)-1-oxo-1,2-dihydroisoquinolin-3-yl)pentanamide]
21 | 7.77 | O=C(CCCCc1cc2cc(-c3cc(Cc4ccc(F)cc4)on3)ccc2c(=O)n1-c1ccc(F)cc1)NS(=O)(=O)C1CC1 [Example 8.5, N-(cyclopropylsulfonyl)-5-(6-(5-(4-fluorobenzyl)isoxazol-3-yl)-2-(4-fluorophenyl)-1-oxo-1,2-dihydroisoquinolin-3-yl)pentanamide]
22 | 7.76 | O=C(CCCCc1cc2cc(-c3noc(Cc4ccc(F)cc4)n3)ccc2c(=O)n1-c1ccc(F)cc1)NS(=O)(=O)C1CC1 [Example 8.6, N-(cyclopropylsulfonyl)-5-(6-(5-(4-fluorobenzyl)-1,2,4-oxadiazol-3-yl)-2-(4-fluorophenyl)-1-oxo-1,2-dihydroisoquinolin-3-yl)pentanamide]

Reference: patent publication US9290454B2, “Substituted isoquinolines as CRTH2 receptor modulators” (Merck Sharp & Dohme Corp., priority 2012, dated 2016)
